{
  "source": "patent US6723337B1",
  "about": "“Transdermal drug delivery system for anti-inflammatory analgesic agent comprising diclofenac diethylammonium salt, and the manufacturing method thereof” (Samyang Corporation, priority 1997, dated 2004)",
  "origin": "cited, not measured here",
  "conditions": "composition comprising hydroxy ethyl pyrrolidone or hydroxy ethyl piperidine as absorption enhancer",
  "data": [
    {"molecule": "O=C(O)Cc1ccccc1Nc1c(Cl)cccc1Cl", "note": "[diclofenac]", "values": [
      {"measurement": "transdermal penetration of the accumulated diclofenac", "result": 180, "unit": "μg/cm^2·day"}
    ]}
  ]
}
